Blank lines part the entries; values can stand above or below the molecule they belong to.
Key:
[1] = biological target: T1, cloned recombinant human HDAC-1 (Homo sapiens, UniProt Q13547); experiment: Human HDAC-1 Assay 1: [3H]-acetylated histone deacetylase assay; assay type: biochemical; details: Assay 1, unbracketed data; [3H]-acetylated histone substrate, 10 min at 37° C.
T1 construct: made in house; host or cells: Baculovirus insect cell expression system
Protocol: HDAC inhibitors were screened against a cloned recombinant human HDAC-1 enzyme expressed and purified from a Baculovirus insect cell expression system. For deacetylase assays, 20,000 cpm of the [^3H]-metabolically labeled acetylated histone substrate (M. Yoshida et al., J. Biol. Chem. 265(28): 17174–17179 (1990)) was incubated with 30 μg of the cloned recombinant hHDAC-1 for 10 minutes at 37° C. The reaction was stopped by adding acetic acid (0.04 M, final concentration) and HCl (250 mM, final concentration). […] For inhibition studies, the enzyme was preincubated with compounds at 4° C. for 30 minutes prior to initiation of the enzymatic assay. IC50 values for HDAC enzyme inhibitors were determined by performing dose response curves with individual compounds and determining the concentration of inhibitor producing fifty percent of the maximal inhibition. IC50 values for representative compounds assayed using this procedure are presented in the third column of Tables 7–10 (excepting bracketed data).

HCT116 cells = experiment: MTT assay; assay type: cell-based; details: Homo sapiens, HCT-116, 72 hours
Protocol: HCT116 cells (2000/well) were plated into 96-well tissue culture plates one day before compound treatment. Compounds at various concentrations were added to the cells. The cells were incubated for 72 hours at 37° C. in 5% CO2 incubator. MTT (3-[4,5-dimethylthiazol-2-yl]-2,5 diphenyl tetrazolium bromide, Sigma) was added at a final concentration of 0.5 mg/ml and incubated with the cells for 4 hours before one volume of solubilization buffer (50% N,N-dimethylformamide, 20% SDS, pH 4.7) was added onto the cultured cells. After overnight incubation, solubilized dye was quantified by colorimetric reading at […] using a reference at […] using an MR700 plate reader (Dynatech Laboratories Inc.). OD values were converted to cell numbers according to a standard growth curve of the relevant cell line. The concentration which reduces cell numbers to 50% of that of solvent treated cells is determined as MTT IC50. IC50 values for representative compounds are presented in the fourth column of Tables 7–10.

[2] = system: acetylated histone H-4 in T24 human bladder cancer cells; experiment: Histone H4 acetylation in whole cells by immunoblots; assay type: cell-based; details: 16 h, immunoblot densitometry, read-out: H4 Ac (T24) EC50
Protocol: T24 human bladder cancer cells growing in culture were incubated with HDAC inhibitors for 16 h. Histones were extracted from the cells after the culture period as described by M. Yoshida et al. (J. Biol. Chem. 265(28): 17174–17179 (1990)). […] of total histone protein was loaded onto SDS/PAGE and transferred to nitrocellulose membranes. Membranes were probed with polyclonal antibodies specific for acetylated histone H-4 (Upstate Biotech Inc.), followed by horse radish peroxidase conjugated secondary antibodies (Sigma). Enhanced Chemiluminescence (ECL) (Amersham) detection was performed using Kodak films (Eastman Kodak). Acetylated H-4 signal was quantified by densitometry. Representative data are presented in the fifth column of Table 7–10. Data are presented as the concentration effective for […] the acetylated H-4 signal by 50% (EC50).

[3] = system: HCT116 human colorectal carcinoma cells; experiment: Antineoplastic effects on human tumor xenografts in vivo; design: species or system CD1 nude mice; details: HCT116 xenograft, daily injection i.v., s.c. or i.p., starting dose 10 mg/kg
Protocol: Eight to ten week old female CD1 nude mice (Taconic Labs, Great Barrington, N.Y.) were injected subcutaneously in the flank area with 2×10^6 preconditioned HCT116 human colorectal carcinoma cells. Preconditioning of these cells was done by a minimum of three consecutive tumor transplantations in the same strain of nude mice. Subsequently, tumor fragments of approximately 30 mgs were excised and implanted subcutaneously in mice, in the left flank area, under Forene anesthesia (Abbott Labs, Geneva, Switzerland). When the tumors reached a mean volume of 100 mm^3, the mice were treated intravenously, subcutaneously, or intraperitoneally by daily injection, with a solution of the histone deacetylase inhibitor in an appropriate vehicle, such as PBS, DMSO/water, or Tween 80/water, at a starting dose of 10 mg/kg. The optimal dose of the HDAC inhibitor was established by dose response experiments according to standard protocols. Tumor volume was calculated every second day post infusion according to standard methods (e.g., Meyer et al., Int. J. Cancer 43: 851–856 (1989)).

Human HDAC-1 = Human HDAC-1 (Homo sapiens, UniProt Q13547); experiment: Human HDAC-1 Assay 2: Boc-Lys(Ac)-AMC fluorescence assay; assay type: biochemical; details: Assay 2, bracketed [ ] data; Boc-Lys(Ac)-AMC substrate
Protocol: In the alternative, the following protocol was used to assay the compounds of the invention. In the assay, the buffer used was 25 mM HEPES, pH 8.0, 137 mM NaCl, 2.7 mM KCl, 1 mM MgCl2 and the subtrate was Boc-Lys(Ac)-AMC in a 50 mM stock solution in DMSO. The enzyme stock solution was 4.08 μg/mL in buffer.
The compounds were pre-incubated (2 μl in DMSO diluted to 13 μl in buffer for transfer to assay plate) with enzyme (20 μl of 4.08 μg/ml) for 10 minutes at room temperature (35 μl pre-incubation volume). The mixture was pre-incubated for 5 minutes at room temperature. The reaction was started by bringing the temperature to 37° C. and adding […] substrate. Total reaction volume was 50 μl. The reaction was stopped after 20 minutes by addition of 50 μl developer, prepared as directed by Biomol (Fluor-de-Lys developer, Cat. # KI-105). A plate was incubated in the dark for 10 minutes at room temperature before reading (λEX=360 nm, λEx=470 nm, Cutoff filter at 435 nm).
IC50 values for representative compounds assayed using this procedure are presented in the third column of Table 9 (bracketed [ ] data).

Chain of Human HDAC-1 (Q13547 whole entry): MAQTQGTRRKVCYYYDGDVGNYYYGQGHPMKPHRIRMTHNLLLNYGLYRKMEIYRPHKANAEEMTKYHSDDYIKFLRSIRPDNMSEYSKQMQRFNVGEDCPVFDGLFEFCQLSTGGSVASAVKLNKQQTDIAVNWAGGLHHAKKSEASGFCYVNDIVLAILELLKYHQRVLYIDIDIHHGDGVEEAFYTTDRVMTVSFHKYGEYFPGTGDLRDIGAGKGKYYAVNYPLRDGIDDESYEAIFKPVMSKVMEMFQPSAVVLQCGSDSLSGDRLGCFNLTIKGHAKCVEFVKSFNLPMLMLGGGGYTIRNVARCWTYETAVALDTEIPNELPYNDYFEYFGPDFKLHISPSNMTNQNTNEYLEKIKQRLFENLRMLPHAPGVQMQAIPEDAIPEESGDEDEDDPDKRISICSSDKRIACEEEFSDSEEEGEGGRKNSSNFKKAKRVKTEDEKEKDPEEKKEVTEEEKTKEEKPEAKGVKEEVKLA
T1 sequence (Q13547 whole entry): as above

SMILES: Nc1ccccc1NC(=O)c1ccc(/C=C/CNc2nccc(-c3cccnc3)n2)cc1 [XVj, N-(2-Amino-phenyl)-4-[3-(4-pyridin-3-yl-pyrimidin-2-ylamino)-propenyl]-benzamide]
IC50 [1]: 2000 nM | IC50 (HCT116 cells): 200 nM | EC50 [2]: < 1000 nM | reduction in tumor weight and volume relative to vehicle controls [3]: significant reduction in tumor weight and volume

SMILES: Nc1ccccc1NC(=O)c1ccc(/C=C/CN2Cc3ccccc3C2)cc1 [XXXa, N-(2-Amino-phenyl)-4-[3-(1,3-dihydro-isoindol-2-yl)-propenyl]-benzamide]
IC50 (Human HDAC-1): 260 nM | IC50 (HCT116 cells): 1000 nM | EC50 [2]: 4000 nM

SMILES: Nc1ccccc1NC(=O)c1ccc(/C=C/CN2CCN(c3ccccn3)CC2)cc1 [XXXc, N-(2-Amino-phenyl)-4-[3-(4-pyridin-2-yl-piperazin-1-yl)-propenyl]-benzamide]
IC50 (Human HDAC-1): 820 nM | IC50 (HCT116 cells): 500 nM | EC50 [2]: 2000 nM

Other lines, results leading:

IC50 (Human HDAC-1): 170 nM | IC50 (HCT116 cells): 2000 nM
SMILES: CN(C/C=C/c1ccc(C(=O)Nc2ccccc2N)cc1)Cc1ccccc1 [XXXd, N-(2-Amino-phenyl)-4-[3-(benzyl-methyl-amino)-propenyl]-benzamide]

IC50 (Human HDAC-1): 790 nM | IC50 (HCT116 cells): 2000 nM
SMILES: Nc1ccccc1NC(=O)c1ccc(/C=C/CNC2Cc3ccccc3C2)cc1 [XXXe, N-(2-Amino-phenyl)-4-[3-(indan-2-ylamino)-propenyl]-benzamide]

From patent publication US7282608B2, “Inhibitors of histone deacetylase” (Methylgene, Inc., priority 2002, dated 2007)
